Results published in US11718610B2, “Compounds containing benzosultam” (MEDSHINE DISCOVERY INC., priority 2020, dated 2023).
Where two headings read alike, the source gives them in different places.

Key:
[1] = system: Calu-6 cells; experiment: Calu-6 (Kras Q61K) antiproliferative activity experiment (CellTiterGlo); format: cell-based, human; conditions: cultured three days
Protocol: Experimental Embodiment 1: Calu-6 (Kras^Q61K) Antiproliferative Activity Experiment
(1) cell culture medium: 88% RPMI-1640, 10% fetal bovine serum, 1% L-glutamine and 1% penicillin-streptomycin;
(2) culture medium, trypsin and DPBS were preheated in a 37° C. water bath;
(3) the original culture medium was removed in the cell culture flask and washed once with 6 mL of PBS;
(4) 3.5 mL of trypsin was added to the cell culture flask, and the cell culture flask was shaken gently, and the trypsin was removed after full contact with the cell, and then the culture flask was placed into a 37° C. incubator containing 5% CO2 for about 1 minute;
(5) the cells were resuspended with 10 mL of cell culture medium, and about 0.6 mL of cell suspension (ViCell XR) was taken out for counting;
(§1) (6) the cell suspension was diluted with culture medium to a cell density required for plating of 2.5×10^4 cells per mL;
(7) 100 μL of PBS was added to each well around the cell plate, and 40 μL of cell suspension was added to the other wells, and placed in a 37° C. incubator containing 5% CO2 for overnight culture.
(§2) (8) The required cell amount and culture medium were taken based on the new T75 culture flask for continued culture.
(§3) (1) the compound to be tested was prepared into […] solution with DMSO;
(2) 9 μL of the compound was taken and added to Echo shallow well plate (Labcyte, #LP-0200), and the shallow well plate was centrifuged at 1000 rpm for 10 seconds;
(3) DPBS at the periphery of the cell plate was sucked out;
(4) the compound was gradient diluted and administrated with Echo, and 10 concentration gradients of each compound were diluted, and 100 nL of the diluent was added to the 384 cell plate separately, and then the cell plate was put back to the incubator and cultured for three days;
(5) then 100 μL of DPBS was added to the periphery of the cell plate.
(1) CTG was added and the plate was read: 20 μL of CellTiterGlo was added to each well of the cell plate, and the cell plate was shaken in the dark for 10 min. and the plate was read on Envision.

[2] = Pharmacokinetics of single intravenous and oral administration in mice; format: in vivo; conditions: 50 mg/kg/day, single oral administration, 50 mg/kg/day; for Cmax: read-out: Maximum plasma drug concentration Cmax; for Tmax: read-out: Peak time Tmax
Protocol: Experimental Embodiment 6: Pharmacokinetics Study of Single Intravenous and Oral Administration in Mice and Dogs
This experiment was aimed to study the pharmacokinetics of the test compound in mice and dogs in vivo after a single oral administration of the compound.
After intravenous or oral administration, blood samples were collected and the actual blood collection time was recorded. After the blood sample was collected, the sample was immediately transferred to a labeled centrifuge tube containing K2-EDTA, and then the plasma was taken after centrifugation. The plasma was transferred to a precooled centrifuge tube, quickly frozen in dry ice, and stored in an ultra-low temperature refrigerator at −70±10° C. until LC-MS/MS analysis.
Pharmacokinetic software was used to process the plasma drug concentration data of the compound with […] model. The peak concentration (Cmax) and peak time (Tmax), as well as the end time of quantification, were obtained directly from the plasma drug concentration-time graph. The following pharmacokinetic parameters were calculated by logarithmic linear trapezoidal method: half-life (T1/2), apparent distribution volume (Vdss) and clearance rate (Cl), and the area under the time-plasma concentration curve from 0 to the end time point (AUC0-last).

[3] = system: ERK phosphorylation in Calu-6 cells; experiment: Calu-6 (Kras Q61K) ERK phosphorylation inhibition experiment (HTRF); format: cell-based, human; conditions: 1 hour incubation with compound
Protocol: Experimental Embodiment 5: Calu-6 (Kras^Q61K) ERK Phosphorylation Inhibition Experiment
1) the cells were resuscitated and cultured to logarithmic growth phase, digested with trypsin, seeded in 96-well plates with 30000 cells per well, and incubated overnight in an incubator.
2) 1 μL of gradient compound dissolved with DMSO was added to a 96-well plate and placed back into an incubator to incubate for 1 hour.
3) The cell plates were removed out, and the culture medium was poured off, and 50 μL of cell lysate (with 1% blocking peptide) was added to each well.
4) The lysate plate was mixed at 500 rpm and incubated and lysed at room temperature for 30 minutes.
5) The antibody mixture in the kit was prepared at a ratio of 1:1:38.
6) 16 μL of cell lysate was transferred to the HTRF plate per well, then the 4 μL of the configured antibody mixture was added thereto.
7) After incubation overnight, the plate was read with Envision, and the fitted curve was obtained according to the ratio (the ratio of fluorescence intensity of […]) and the EC50 was calculated according to the four-parameter fitting formula Y=Bottom+(Top−Bottom)/(1+10^((Log EC50−X)*HillSlope)) of Graphpad.

[4] = system: HCT116 cells; experiment: HCT116 (Kras G13D) antiproliferative activity experiment (CellTiter Glo); format: cell-based; conditions: Homo sapiens, HCT-116, 72 h, cultured 3 days
Protocol: Experimental Embodiment 2: HCT116 (Kras^G13D) Antiproliferative Activity Experiment
(1) cell culture medium: 89% Mc′Coy 5A, 10% fetal bovine serum and 1% penicillin-streptomycin;
(2) culture medium and trypsin were preheated in a 37° C. water bath;
(3) the culture medium was removed in the cell culture flask and washed once with 1 mL of trypsin;
(4) 1 mL of trypsin was added to the cell culture flask, and the cell culture flask was shaken gently, and the trypsin was removed after full contact with the cell, and then the culture flask was placed into a 37° C. incubator containing 5% CO2 for about 1 minute;
(5) the cells were resuspended with 2 mL of cell culture medium, and about 0.01 mL of cell suspension was taken out for counting;
as §1
(7) 100 μL of culture medium was added to each well around the cell plate, and 80 μL of cell suspension was added to the other wells, and placed in a 37° C. incubator containing 5% CO2 for overnight culture.
as §2, §3
(2) 9 concentration gradients and 3-fold dilutions were performed on the compounds, that is, a double-duplicate experiment was set from 6 mmol to 2.7 μmol, and 78 μL of culture medium was added to the middle plate, and then 2 μL of gradient diluted compound per well was transferred to the middle plate according to the corresponding position, and after mixing, 20 μL per well was transferred to the cell plate, and the final concentration of the compound transferred to the cell plate was 30 μmol to 13.7 nmol. The cell plate was placed in a carbon dioxide incubator and cultured for another 3 days.
(1) CTG was added and the plate was read: 20 μL of CellTiter Glo was added to each well of the cell plate, and the cell plate was shaken in the dark for 10 min;
(2) plates were read on Victor Nivo.
The equation (Sample-Min)/(Max-Min)*100% was used to convert the original data into inhibition rate, and the IC50 value could be obtained by curve fitting with four parameters (obtained by “log (inhibitor) vs. response—variable slope” mode in GraphPad Prism).

[5] = system: A375 cells; experiment: A375 (BRAF V600E) antiproliferative activity experiment (CellTiter-glo); format: cell-based; conditions: Homo sapiens, A-375, 120 h, cultured 5 days
Protocol: Experimental Embodiment 3: A375 (BRAF^V600E) Antiproliferative Activity Experiment
Cell line A375 (purchased from Procell). DMEM culture medium, penicillin/streptomycin antibiotics were purchased from Vicente, and fetal bovine serum was purchased from Biosera. CellTiter-glo (cell viability chemiluminescence detection reagent) reagent was purchased from Promega.
A375 cells were seeded in a white 96 well plate with […] of cell suspension per well containing 2000 of A375 cells. The cell plate was placed in a carbon dioxide incubator and cultured overnight. The compound to be tested was diluted 3-fold to the 9th concentration with a pipette, that is, diluted from 6 mmol to 0.91 μmol, and a double-duplicate experiment was set-up, 78 μmol of culture medium was added to the middle plate, then 2 μmol of gradient dilution compound per well was transferred to the middle plate according to the corresponding position, and 20 μmol per well was mixed and transferred to the cell plate. The concentration of the compound transferred to the cell plate ranged from 30 μmol to 4.57 nmol. The cell plate was placed in a carbon dioxide incubator and cultured for 5 days. Another cell plate was prepared, and the signal value was read as the maximum value (max value in the following equation) on the day of administration to participate in data analysis, 25 μmol of cell viability chemiluminescence detection reagent was added to each well of the cell plate and incubated at room temperature for 10 minutes to stabilize the luminescence signal. A multi-marker analyzer reading was used. After the incubation of the cell plate added with the compound was finished, 25 μmol of cell viability chemiluminescence detection reagent was added to each well of the cell plate and incubated at room temperature for 10 minutes to stabilize the luminescence signal. A multi-marker analyzer reading was used.
(§4) The equation (Sample−Min)/(Max−Min)*100% was used to convert the original data into inhibition rate, and the IC50 value could be obtained by curve fitting with four parameters (obtained by “log (inhibitor) vs. response—variable slope” mode in GraphPad Prism).

[6] = system: Colo205 cells; experiment: Colo205 (BRAF V600E) antiproliferative activity experiment (CellTiter-glo); format: cell-based; conditions: Homo sapiens, COLO 205, 72 h, cultured 3 days
Protocol: Experimental Embodiment 4: Colo205 (BRAF^V600E) Antiproliferative Activity Experiment
Cell line COLO205 (purchased from Procell), RPMI1640 culture medium, penicillin/streptomycin antibiotics were purchased from Vicente, and fetal bovine serum was purchased from Biosera. CellTiter-glo (cell viability chemiluminescence detection reagent) reagent was purchased from Promega.
COLO205 cells were seeded in a white 96-well plate with […] of cell suspension per well containing 3000 of COLO205 cells. The cell plate was placed in a carbon dioxide incubator and cultured overnight. The compound to be tested was diluted 3-fold to the 9th concentration with a pipette, that is, diluted from […], and a double-duplicate experiment was set-up. 78 μmol of culture medium was added to the middle plate, then 2 μmol of gradient dilution compound per well was transferred to the middle plate according to the corresponding position, and 20 μmol of per well was mixed and transferred to the cell plate. The concentration of the compound transferred to the cell plate ranged from 1 μmol to 0.15 nmol. The cell plate was placed in a carbon dioxide incubator and cultured for 3 days. Another cell plate was prepared, and the signal value was read as the maximum value (max value in the following equation) on the day of administration to participate in data analysis. 25 μmol of cell viability chemiluminescence detection reagent was added to each well of the cell plate and incubated at room temperature for 10 minutes to stabilize the luminescence signal. A multi-marker analyzer reading was used. After the incubation of the cell plate added with the compound was finished, 25 μmol of cell viability chemiluminescence detection reagent was added to each well of the cell plate and incubated at room temperature for 10 minutes to stabilize the luminescence signal. A multi-marker analyzer reading was used.
as §4

COc1cc(F)cc([C@@H](C)NC(=O)[C@@H](CO)N2Cc3ccc(-c4nc(NC5CCOCC5)ncc4Cl)cc3S2(=O)=O)c1 [Compound 6]
IC50 ([1]; Homo sapiens, Calu-6, 72 h): 508 nM

C[C@H](C(=O)N[C@H](CO)c1cc(F)cc(Cl)c1)N1Cc2ccc(-c3nc(NC4CCOCC4)ncc3Cl)cc2S1(=O)=O [Compound 5]
Cmax ([2]; mouse, plasma, po): 90.5 µM | Tmax ([2]; mouse, plasma): 0.75 h | IC50 ([1]; Homo sapiens, Calu-6, 72 h): 222 nM | IC50 ([3]; Homo sapiens, Calu-6, 1 h): 6.92 nM

Cc1cccc([C@@H](CO)NC(=O)[C@@H](C)N2Cc3ccc(-c4nc(NC5CCOCC5)ncc4Cl)cc3S2(=O)=O)c1 [Compound 7]
IC50 ([1]; Homo sapiens, Calu-6, 72 h): 210 nM | IC50 ([3]; Homo sapiens, Calu-6, 1 h): 4.39 nM

[2H]C1([2H])CC(Nc2ncc(Br)c(-c3ccc4c(c3)S(=O)(=O)N([C@H](C)C(=O)N[C@H](CO)c3cc(F)cc(OC)c3)C4)n2)CC([2H])([2H])O1 [Compound 12]
IC50 [4]: 112 nM | IC50 [5]: 16 nM | IC50 ([3]; Homo sapiens, Calu-6, 1 h): 6.91 nM | IC50 [6]: 21 nM

COc1cc(F)cc([C@@H](CO)NC(=O)CN2Cc3ccc(-c4nc(NC5CCOCC5)ncc4Cl)cc3S2(=O)=O)c1 [Compound 10]
Cmax ([2]; mouse, plasma, po): 34.6 µM | Tmax ([2]; mouse, plasma): 1 h | IC50 ([1]; Homo sapiens, Calu-6, 72 h): 253 nM | IC50 ([3]; Homo sapiens, Calu-6, 1 h): 3.03 nM

COc1cc(F)cc([C@@H](CO)NC(=O)[C@@H](C)N2Cc3ccc(-c4nc(N[C@@H]5CCOC[C@H]5F)ncc4Cl)cc3S2(=O)=O)c1 [Compound 2]
IC50 ([1]; Homo sapiens, Calu-6, 72 h): 222 nM | IC50 ([3]; Homo sapiens, Calu-6, 1 h): 13.1 nM

COc1cc(F)cc([C@@H](CO)NC(=O)[C@@H](C)N2Cc3ccc(-c4nc(N[C@H]5CCOC[C@H]5F)ncc4Br)cc3S2(=O)=O)c1 [Compound 13]
IC50 [4]: 138 nM | IC50 [5]: 17 nM | IC50 ([3]; Homo sapiens, Calu-6, 1 h): 7.84 nM | IC50 [6]: 21 nM

C[C@H](C(=O)N[C@H](CO)c1cccc(N(C)C)n1)N1Cc2ccc(-c3nc(NC4CCOCC4)ncc3Cl)cc2S1(=O)=O [Compound 8]
IC50 ([1]; Homo sapiens, Calu-6, 72 h): 313 nM

COc1cc(F)cc([C@@H](CO)NC(=O)[C@@H](C)N2Cc3ccc(-c4nc(NC5CCOCC5)ncc4Cl)cc3S2(=O)=O)c1 [Compound 4]
Peak time Tmax [2]: 1 h | Cmax [2]: 182 µM | IC50 [1]: 239 nM | IC50 [3]: 6.36 nM
